# Literature values in patent publication US9174839B2, “Methods and compositions for wound healing” (IMBED BIOSCIENCES, INC., priority 2008, dated 2015).
# What was measured:
# [1] = incisional wounds
# keratinocytes = conditions: in vitro monolayer cell cultures
# fibroblasts = conditions: in vitro monolayer cell cultures
# hepatocytes = conditions: in vitro
# lymphocytes = conditions: in vitro
Molecule,fibroblastic proliferation [1],production of collagen [1],toxicity to keratinocytes (keratinocytes),toxicity to fibroblasts (fibroblasts),cytotoxic effects on hepatocytes (hepatocytes),cytotoxic effects on lymphocytes (lymphocytes)
CC1=C(/C=C/C(C)=C/C=C/C(C)=C/C(=O)O)C(C)(C)CCC1 [tretinoin],increased,diminished,–,–,–,–
silver ions,–,–,cytotoxic effects,cytotoxic effects,cytotoxic effects,cytotoxic effects
